Experimental data from US7517874B2 (priority 2007, dated 2009).
Where two headings read alike, the source gives them in different places.

Legend:
[1] = target: human CB1 receptor (hCB1) (Homo sapiens, UniProt P21554); experiment: cell-based; type: cell-based; details: for +/− HCB1: agonist or inverse agonist at hCB1
Description: (§1) The ability of compounds to act as agonists or inverse agonists at human CB2 and CB1 receptors (hCB2, hCB1, respectively) and at the rat CB2 receptor (rCB2) was determined by measuring changes in intracellular cAMP levels. Chinese Hamster Ovary (CHO-K1) cell lines stably expressing hCB2 (Genebank: X74328) or hCB1 (Genebank: X54937) were purchased from Euroscreen (Gosselies, Belgium). The rat CB2 receptor was expressed from genomic DNA (provided by M. Abood, California Pacific Medical Center) in CHO-K1 cells from expression plasmid vector, pcDNA3.1.
(§2) Cell lines were grown in suspension in EX-CELL 302 CHO Serum-free medium (Sigma, cat #14324C) supplemented with 1% Fetal Bovine Serum, glutamine and non-essential amino-acids under 0.4 mg/mL G418 selection.
(§3) Receptor mediated responses were determined by measuring changes in intracellular cAMP using LANCE cAMP detection kit (cat #AD0264, Perkin Elmer, Wellesley, Mass.) based on time-resolved fluorescence resonance energy transfer (TR-FRET). Changes in cAMP were determined in cells pre-incubated with IBMX (isobutyl methylxanthine) and prestimulated with NKH-477 (a water soluble forskolin derivative, cat #1603, Tocris, Ellisville, Mo.) to increase basal cAMP levels as detailed below.
(§4) On the day of the experiment, cells were spun at low speed for 5 min at room temperature. The supernatant was removed and cells were resuspended in stimulation buffer (Hanks Buffered Salt Solution/5 mM HEPES, containing 0.5 mM IBMX (cat #17018, Sigma) and 0.02% BSA (Perkin-Elmer, cat #CR84-100)). Cell clumps were removed by filtering through cell strainer 40 μm (BD Falcon, Discovery Labware, Bedford, Mass.) and diluted to 2×10^5 cells/mL. Antibody supplied with the LANCE cAMP immunoassay kit was then added according to the manufacturer's instructions. An aliquot of cells was taken for un-induced controls. To the remaining cells was added NKH-477 (a water soluble forskolin derivative, Tocris cat #1603) to a final concentration of 2-8 μM. Cells were then incubated for 30 min at room temperature prior to adding to Proxiplates containing test compounds (final DMSO concentration was less than 0.5%) with a Multidrop bulk dispenser, followed by a sixty minute incubation at room temperature. The response was stopped by addition of the detection mix supplied with the LANCE kit. The reagents were allowed to equilibrate for three hours prior to reading on an Envision multi-mode detector (Perkin-Elmer). TR-FRET was measured using a 330-380 nm excitation filter, a 665 nm emission filter, dichroic mirror 380 nm and Z=1 mm. Cyclic AMP concentrations in each well were back-calculated from a cAMP standard curve run concurrently during each assay. Each plate contained 16 wells of forskolin stimulated cells and 16 wells of forskolin plus CP55,940-treated cells. Cells were treated with 1 μM CP55,940 (Tocris cat. #0949). Concentrations of cAMP were expressed as a percent of the difference of these two groups of wells. Concentration-response data including EC50 (the concentration of compound producing 50% of the maximal response) and intrinsic activity (the percent maximal activation compared to full activation by CP55,940) were determined using a four-parameter non-linear regression algorithm (Xlfit equation 251, IDBS).

rat CB2 receptor (rCB2) = target: T1, rat CB2 receptor (rCB2) (Rattus norvegicus, UniProt Q9QZN9); experiment: cell-based; type: cell-based; details: for +/− RCB2: agonist or inverse agonist at rCB2
T1 sequence (Q9QZN9 1-360): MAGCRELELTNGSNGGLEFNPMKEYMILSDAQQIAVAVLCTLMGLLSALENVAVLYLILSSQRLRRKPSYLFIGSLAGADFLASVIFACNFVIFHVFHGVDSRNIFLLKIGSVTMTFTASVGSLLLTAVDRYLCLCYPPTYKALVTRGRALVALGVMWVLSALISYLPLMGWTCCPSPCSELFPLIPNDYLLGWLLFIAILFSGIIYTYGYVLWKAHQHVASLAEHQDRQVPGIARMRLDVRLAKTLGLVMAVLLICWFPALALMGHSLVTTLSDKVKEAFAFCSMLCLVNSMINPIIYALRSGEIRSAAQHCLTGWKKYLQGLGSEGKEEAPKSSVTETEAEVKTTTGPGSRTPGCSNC
Description: as §1, §2, §3, §4

Chain of human CB1 receptor (hCB1) (P21554 whole entry): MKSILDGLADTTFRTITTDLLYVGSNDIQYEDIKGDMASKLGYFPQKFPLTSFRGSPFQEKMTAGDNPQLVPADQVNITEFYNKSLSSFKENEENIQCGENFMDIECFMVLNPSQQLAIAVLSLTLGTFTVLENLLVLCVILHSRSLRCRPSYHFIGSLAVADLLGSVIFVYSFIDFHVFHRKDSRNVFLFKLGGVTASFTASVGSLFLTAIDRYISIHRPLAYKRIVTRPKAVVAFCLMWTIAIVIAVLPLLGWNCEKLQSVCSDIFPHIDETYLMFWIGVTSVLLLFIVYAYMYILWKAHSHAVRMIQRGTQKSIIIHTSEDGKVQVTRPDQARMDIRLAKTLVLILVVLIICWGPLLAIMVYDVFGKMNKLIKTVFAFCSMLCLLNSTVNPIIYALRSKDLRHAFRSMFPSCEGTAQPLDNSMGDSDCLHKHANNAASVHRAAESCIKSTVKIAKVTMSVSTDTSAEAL

Question: CNC(=O)[C@@H](NC(=O)c1nc(/C=C/CN2CCOCC2)n2c1CN(C)CCC2)C(C)(C)C [Compound 509, (S,E)-N-(3,3-dimethyl-1-(methylamino)-1-oxobutan-2-yl)-8-methyl-3-(3-morpholinoprop-1-enyl)-6,7,8,9-tetrahydro-5H-imidazo[1,5-a][1,4]diazepine-1-carboxamide] was tested. Which EC50 [1] did it give?
Answer: Its EC50 is > 10000 nM.

Question: What about the EC50 (rat CB2 receptor (rCB2)) of the same molecule?
Answer: Its EC50 is > 10 µM.

Question: How did the EC50 [1] turn out when CNC(=O)[C@@H](NC(=O)c1nc(-c2ccccc2)n2c1CNCCC2)C(C)(C)C [Compound 314, (S)-N-(3,3-dimethyl-1-(methylamino)-1-oxobutan-2-yl)-3-phenyl-6,7,8,9-tetrahydro-5H-imidazo[1,5-a][1,4]diazepine-1-carboxamide] was run?
Answer: Its EC50 is > 10000 nM.

Question: And the “+/− RCB2” value (rat CB2 receptor (rCB2))?
Answer: The value was “−”.

Question: CN1CCCn2c(-c3ccc(F)cc3F)nc(C(=O)N[C@@H](CC(C)(C)C)C(N)=O)c2C1 [Compound 589, (S)-N-(1-amino-4,4-dimethyl-1-oxopentan-2-yl)-3-(2,4-difluorophenyl)-8-methyl-6,7,8,9-tetrahydro-5H-imidazo[1,5-a][1,4]diazepine-1-carboxamide] was tested. Which “+/− HCB1” value [1] did it give?
Answer: The value was “+”.

Question: What about the “+/− RCB2” value (rat CB2 receptor (rCB2)) of the same molecule?
Answer: The value was “+”.

Question: What does the source list for CNC(=O)[C@@H](NC(=O)c1nc(-c2ccc(OC)c(C)c2)n2c1CN(C)CCC2)C(C)(C)C [Compound 350, (S)-N-(3,3-dimethyl-1-(methylamino)-1-oxobutan-2-yl)-3-(4-methoxy-3-methylphenyl)-8-methyl-6,7,8,9-tetrahydro-5H-imidazo[1,5-a][1,4]diazepine-1-carboxamide]?
Answer: EC50 [1]: > 10000 nM; +/− RCB2 (rat CB2 receptor (rCB2)): −

Question: For CC(C)NC(=O)[C@@H](NC(=O)c1nc(-c2ccccc2)n2c1CN(C)CCC2)C(C)(C)C [Compound 472, (S)-N-(1-(isopropylamino)-3,3-dimethyl-1-oxobutan-2-yl)-8-methyl-3-phenyl-6,7,8,9-tetrahydro-5H-imidazo[1,5-a][1,4]diazepine-1-carboxamide], which EC50 [1] is on record?
Answer: Its EC50 is > 10000 nM.

Question: What about the “+/− RCB2” value (rat CB2 receptor (rCB2)) of the same molecule?
Answer: Its value is “+”.

Question: How did the EC50 [1] turn out when CNC(=O)[C@@H](NC(=O)c1nc(-c2cnc(OC)nc2OC)n2c1CN(C)CCC2)C(C)(C)C [Compound 344, (S)-3-(2,4-dimethoxypyrimidin-5-yl)-N-(3,3-dimethyl-1-(methylamino)-1-oxobutan-2-yl)-8-methyl-6,7,8,9-tetrahydro-5H-imidazo[1,5-a][1,4]diazepine-1-carboxamide] was run?
Answer: Its EC50 is > 10000 nM.

Question: What about the EC50 (rat CB2 receptor (rCB2)) of the same molecule?
Answer: The EC50 was > 10 µM.

Question: Which results are given for Cc1ccc(-c2nc(C(=O)N[C@H](c3nc(C)no3)C(C)(C)C)c3n2CCCNC3)c(F)c1 [Compound 520, (S)-N-(2,2-dimethyl-1-(3-methyl-1,2,4-oxadiazol-5-yl)propyl)-3-(2-fluoro-4-methylphenyl)-6,7,8,9-tetrahydro-5H-imidazo[1,5-a][1,4]diazepine-1-carboxamide]?
Answer: EC50 [1]: > 10000 nM; +/− RCB2 (rat CB2 receptor (rCB2)): −

Question: With CNC(=O)[C@H](CC(C)C)NC(=O)c1nc(C2=CCCCO2)n2c1CN(C)CC2 [Compound 280, (S)-3-(3,4-dihydro-2H-pyran-6-yl)-7-methyl-N-(4-methyl-1-(methylamino)-1-oxopentan-2-yl)-5,6,7,8-tetrahydroimidazo[1,5-a]pyrazine-1-carboxamide] as the molecule, how does the EC50 [1] read?
Answer: Its EC50 is > 10000 nM.

Question: What about the “+/− RCB2” value (rat CB2 receptor (rCB2)) of the same molecule?
Answer: The value was “+”.

Question: Which results are given for CNC(=O)[C@@H](NC(=O)c1nc(-c2ccsc2)n2c1CN(C)CCC2)C(C)(C)C [Compound 329, (S)-N-(3,3-dimethyl-1-(methylamino)-1-oxobutan-2-yl)-8-methyl-3-(thiophen-3-yl)-6,7,8,9-tetrahydro-5H-imidazo[1,5-a][1,4]diazepine-1-carboxamide]?
Answer: EC50 [1]: > 10000 nM; +/− RCB2 (rat CB2 receptor (rCB2)): +

Question: How did the EC50 ([1]; groups >100 nM-10 μM and >10 μM, cAMP, CHO-K1 hCB1, read-out: EC50 HCB1) turn out when CN1CCn2c(-c3ccc(Cl)cc3F)nc(C(=O)N3CCC(n4c(=O)[nH]c5ccccc54)CC3)c2C1 [Compound 215, 1-(1-(3-(4-chloro-2-fluorophenyl)-7-methyl-5,6,7,8-tetrahydroimidazo[1,5-a]pyrazine-1-carbonyl)piperidin-4-yl)-1H-benzo[d]imidazol-2(3H)-one] was run?
Answer: The EC50 was > 10000 nM.

Question: What about the “+/− RCB2” value (rat CB2 receptor (rCB2)) of the same molecule?
Answer: Its value is “−”.

Question: Which EC50 [1] does the source give for C[C@H](NC(=O)c1nc(-c2ccccc2)n2c1CN(C(=O)c1ccccc1)CC2)c1ccccc1 [Compound 125, (S)-7-benzoyl-3-phenyl-N-(1-phenylethyl)-5,6,7,8-tetrahydroimidazo[1,5-a]pyrazine-1-carboxamide] here?
Answer: Its EC50 is > 10000 nM.

Question: And the “+/− RCB2” value (rat CB2 receptor (rCB2))?
Answer: Its value is “−”.

Question: With CNC(=O)[C@@H](NC(=O)c1nc(-c2ccc(OC(F)(F)F)cc2)n2c1CN(C)CCC2)C(C)(C)C [Compound 339, (S)-N-(3,3-dimethyl-1-(methylamino)-1-oxobutan-2-yl)-8-methyl-3-(4-(trifluoromethoxy)phenyl)-6,7,8,9-tetrahydro-5H-imidazo[1,5-a][1,4]diazepine-1-carboxamide] as the molecule, how does the EC50 [1] read?
Answer: The EC50 was > 10000 nM.

Question: What about the “+/− RCB2” value (rat CB2 receptor (rCB2)) of the same molecule?
Answer: The value was “−”.

Question: For CNC(=O)[C@@H](NC(=O)c1nc(-c2ccccc2)n2c1CN(S(=O)(=O)CC(C)C)CC2)C(C)(C)C [Compound 95, (S)-N-(3,3-dimethyl-1-(methylamino)-1-oxobutan-2-yl)-7-(isobutylsulfonyl)-3-phenyl-5,6,7,8-tetrahydroimidazo[1,5-a]pyrazine-1-carboxamide], which EC50 [1] is on record?
Answer: The EC50 was > 10000 nM.

Question: What about the “+/− RCB2” value (rat CB2 receptor (rCB2)) of the same molecule?
Answer: The value was “−”.

Question: What does the source list for CNC(=O)[C@@H](NC(=O)c1nc(-c2cscc2C)n2c1CNCC2)C(C)(C)C [Compound 21, (S)-N-(3,3-dimethyl-1-(methylamino)-1-oxobutan-2-yl)-3-(4-methylthiophen-3-yl)-5,6,7,8-tetrahydroimidazo[1,5-a]pyrazine-1-carboxamide]?
Answer: EC50 [1]: > 10000 nM; +/− RCB2 (rat CB2 receptor (rCB2)): +

Question: What does the source list for CNC(=O)[C@@H](NC(=O)c1nc(-c2ccc3ccccc3c2)n2c1CN(C)CCC2)C(C)(C)C [Compound 380, (S)-N-(3,3-dimethyl-1-(methylamino)-1-oxobutan-2-yl)-8-methyl-3-(naphthalen-2-yl)-6,7,8,9-tetrahydro-5H-imidazo[1,5-a][1,4]diazepine-1-carboxamide]?
Answer: EC50 [1]: > 10000 nM; +/− RCB2 (rat CB2 receptor (rCB2)): −

Question: CN1CCCn2c(-c3ccc(F)c(Cl)c3)nc(C(=O)N[C@H](C(=O)N(C)C)C(C)(C)C)c2C1 [Compound 558, (S)-3-(3-chloro-4-fluorophenyl)-N-(1-(dimethylamino)-3,3-dimethyl-1-oxobutan-2-yl)-8-methyl-6,7,8,9-tetrahydro-5H-imidazo[1,5-a][1,4]diazepine-1-carboxamide] was tested. Which “+/− HCB1” value [1] did it give?
Answer: The value was “+”.

Question: And the “+/− RCB2” value (rat CB2 receptor (rCB2))?
Answer: Its value is “+”.

Question: Which EC50 [1] does the source give for CNC(=O)[C@@H](NC(=O)c1nc(-c2ccccn2)n2c1CN(C)CCC2)C(C)(C)C [Compound 395, (S)-N-(3,3-dimethyl-1-(methylamino)-1-oxobutan-2-yl)-8-methyl-3-(pyridin-2-yl)-6,7,8,9-tetrahydro-5H-imidazo[1,5-a][1,4]diazepine-1-carboxamide] here?
Answer: Its EC50 is > 10000 nM.

Question: What about the “+/− RCB2” value (rat CB2 receptor (rCB2)) of the same molecule?
Answer: The value was “+”.

Question: Which results are given for CC(C)(C)OC(=O)N1CCn2c(-c3ccccc3)nc(C(=O)Nc3ccccc3)c2C1 [Compound 32, tert-butyl 3-phenyl-1-(phenylcarbamoyl)-5,6-dihydroimidazo[1,5-a]pyrazine-7(8H)-carboxylate]?
Answer: EC50 [1]: > 10000 nM; +/− RCB2 (rat CB2 receptor (rCB2)): −

Question: For CN1CCCn2c(-c3ccc(F)c(F)c3)nc(C(=O)N[C@H](C(=O)N(C)C)C(C)(C)C)c2C1 [Compound 561, (S)-3-(3,4-difluorophenyl)-N-(1-(dimethylamino)-3,3-dimethyl-1-oxobutan-2-yl)-8-methyl-6,7,8,9-tetrahydro-5H-imidazo[1,5-a][1,4]diazepine-1-carboxamide], which “+/− HCB1” value [1] is on record?
Answer: The value was “+”.

Question: What about the “+/− RCB2” value (rat CB2 receptor (rCB2)) of the same molecule?
Answer: The value was “+”.
